Structures are written as SMILES. Several values for one entry are separate records, joined by “and”; a condition that tells them apart may be missing. Identical values can stand only once. Toxic doses and inconclusive results are not listed.

The assay relates to P388 leukemia ip, CD2F1 mice, survival T/C. The assay can be described thus: NCI In Vivo Anticancer Drug Screen. Data for tumor model P388 Leukemia (intraperitoneal) in CD2F1 (CDF1) mice. To be noted: endpoint: median survival time, higher = longer survival. The method, boiled down: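 Mice carrying the transplanted tumor received test compound or vehicle. Survival was recorded in each group, and the value is the treated-group measurement divided by that of the vehicle-treated control group.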

The mark [1] stands for this setting: dose: 100.0 mg/kg/injection, schedule: Q04DX003 (ip), vehicle: saline.
[2] abbreviates: dose: 200.0 mg/kg/injection, schedule: Q04DX003 (ip), vehicle: saline.
Setting [3] is: dose: 60.0 mg/kg/injection, schedule: Q01DX005 (ip), vehicle: saline with Tween-80.
The mark [4] stands for this setting: dose: 120.0 mg/kg/injection, schedule: Q01DX005 (ip), vehicle: saline with Tween-80.
Where [5] appears, read: dose: 240.0 mg/kg/injection, schedule: Q01DX005 (ip), vehicle: saline with Tween-80.
[6] abbreviates: dose: 12.5 mg/kg/injection, schedule: Q01DX009 (ip), vehicle: saline with Tween-80.
Where [7] appears, read: dose: 25.0 mg/kg/injection, schedule: Q01DX009 (ip), vehicle: saline with Tween-80.
The mark [8] stands for this setting: dose: 50.0 mg/kg/injection, schedule: Q01DX009 (ip), vehicle: saline with Tween-80.
Where [9] appears, read: dose: 100.0 mg/kg/injection, schedule: Q01DX009 (ip), vehicle: saline with Tween-80.
Setting [10] is: dose: 200.0 mg/kg/injection, schedule: Q01DX009 (ip), vehicle: saline with Tween-80.
Where [11] appears, read: dose: 50.0 mg/kg/injection, schedule: Q01DX005 (ip), vehicle: Klucel (hydroxypropylcellulose) (HPC).
The mark [12] stands for this setting: dose: 100.0 mg/kg/injection, schedule: Q01DX005 (ip), vehicle: Klucel (hydroxypropylcellulose) (HPC).
The mark [13] stands for this setting: dose: 50.0 mg/kg/injection, schedule: Q01DX005 (ip), vehicle: saline with Tween-80.
[14] abbreviates: dose: 100.0 mg/kg/injection, schedule: Q01DX005 (ip), vehicle: saline with Tween-80.
The mark [15] stands for this setting: dose: 200.0 mg/kg/injection, schedule: Q01DX005 (ip), vehicle: saline with Tween-80.
Where [16] appears, read: dose: 50.0 mg/kg/injection, schedule: Q01DX009 (ip), vehicle: Klucel (hydroxypropylcellulose) (HPC).
Where [17] appears, read: dose: 100.0 mg/kg/injection, schedule: Q01DX009 (ip), vehicle: Klucel (hydroxypropylcellulose) (HPC).
Where [18] appears, read: dose: 200.0 mg/kg/injection, schedule: Q01DX009 (ip), vehicle: Klucel (hydroxypropylcellulose) (HPC).

Regarding `Cc1nc2c([N+](=O)[O-])c(NCc3ccccc3)c([N+](=O)[O-])cc2[nH]1`, the T/C is 97 % of control (dose: 100.0 mg/kg/injection, schedule: Q04DX003 (ip), vehicle: saline with Tween-80); 95 % of control (dose: 200.0 mg/kg/injection, schedule: Q04DX003 (ip), vehicle: saline with Tween-80); 101 % of control (dose: 400.0 mg/kg/injection, schedule: Q04DX003 (ip), vehicle: saline with Tween-80).
Take `Nc1nnn(N)n1`: the T/C was 92 % of control under setting [1] and 100 % of control under setting [2].
Regarding `CC(C)(C)OOC(=O)Cc1ccccc1`, the T/C reads like this: under setting [3], 104 % of control; under setting [4], 122 % of control; under setting [5], 122 % of control.
Consider `CC(=O)c1ccc[n+](CCc2c[nH]c3ccccc23)c1`, for which the T/C reads like this: under setting [6], 104 % of control; under setting [7], 113 % of control; under setting [8], 109 % of control.
For the compound `O=C1OC(=O)C2C1C1C(c3ccccc3)=C(c3ccccc3)C2C2C(=O)OC(=O)C21` (configuration not stated), the T/C was 103 % of control under setting [3], 111 % of control under setting [4] and 116 % of control under setting [5].
For the compound `CC1CN1C1=C(F)C(=O)C(N2CC2C)=C(F)C1=O` (configuration not stated), the T/C is, setting by setting: (dose: 1.56 mg/kg/injection, schedule: Q01DX009 (ip), vehicle: Klucel (hydroxypropylcellulose) (HPC)) 104 % of control; (dose: 3.12 mg/kg/injection, schedule: Q01DX009 (ip), vehicle: Klucel (hydroxypropylcellulose) (HPC)) 106 % of control and 110 % of control and 116 % of control; (dose: 6.25 mg/kg/injection, schedule: Q01DX009 (ip), vehicle: Klucel (hydroxypropylcellulose) (HPC)) 105 % of control and 123 % of control.
In the case of `COc1cc2cc3c(-c4ccccc4)noc3nc2cc1OC`, the T/C under setting [3] was 106 % of control, the T/C under setting [4] was 93 % of control and the T/C under setting [5] was 90 % of control.
As for `CC(=O)Nc1c([N+](=O)[O-])cc2c3c(cccc13)CC2`, the T/C reads like this: under setting [9], 86 % of control; under setting [10], 90 % of control.
As to `CN(C)C1CS(=O)(=O)OC2=C1CCSc1ccccc12` (configuration not stated), the T/C by setting is: under setting [3], 102 % of control; under setting [4], 99 % of control; under setting [5], 100 % of control.
On to `COc1cc2c(cc1OC)C(CCCCCCCC1NCCc3cc(OC)c(OC)cc31)NCC2` (configuration not stated), for which the T/C (dose: 12.5 mg/kg/injection, schedule: Q01DX005 (ip), vehicle: saline) is 102 % of control; the T/C (dose: 25.0 mg/kg/injection, schedule: Q01DX005 (ip), vehicle: saline) was 96 % of control; the T/C (dose: 50.0 mg/kg/injection, schedule: Q01DX005 (ip), vehicle: saline) is 100 % of control and 101 % of control.
In the case of `CCC[P+](CCC)(CCC)CCCCCCCCCC[P+](CCC)(CCC)CCC`, the T/C by setting is: (dose: 0.19 mg/kg/injection, schedule: Q01DX009 (ip), vehicle: saline) 106 % of control; (dose: 0.39 mg/kg/injection, schedule: Q01DX009 (ip), vehicle: saline) 100 % of control; (dose: 0.79 mg/kg/injection, schedule: Q01DX009 (ip), vehicle: saline) 88 % of control.
For `NC(N)=NCC(N)C(=O)O` (configuration not stated), the T/C by setting is: under setting [11], 101 % of control; under setting [12], 104 % of control; (dose: 200.0 mg/kg/injection, schedule: Q01DX005 (ip), vehicle: Klucel (hydroxypropylcellulose) (HPC)) 104 % of control.
In the case of `C=CCC1OC(COC(=O)c2ccccc2)C(OC(=O)c2ccccc2)C1OC(=O)c1ccccc1` (configuration not stated), the T/C was 112 % of control (dose: 25.0 mg/kg/injection, schedule: Q01DX005 (ip), vehicle: Klucel (hydroxypropylcellulose) (HPC)); 114 % of control (dose: 44.5 mg/kg/injection, schedule: Q01DX005 (ip), vehicle: Klucel (hydroxypropylcellulose) (HPC)); 117 % of control under setting [11]; 120 % of control (dose: 89.0 mg/kg/injection, schedule: Q01DX005 (ip), vehicle: Klucel (hydroxypropylcellulose) (HPC)); 118 % of control under setting [12].
In the case of `O=C1c2cccnc2C(=O)c2c(O)ccc(O)c21`, the T/C is, setting by setting: under setting [8], 95 % of control; under setting [9], 95 % of control; under setting [10], 99 % of control; (dose: 400.0 mg/kg/injection, schedule: Q01DX009 (ip), vehicle: saline with Tween-80) 100 % of control.
Consider `Cc1cccc(NC(=O)Oc2ccc(C#N)cc2)c1`, for which the T/C by setting is: under setting [3], 97 % of control; under setting [4], 109 % of control; under setting [5], 106 % of control.
As to `OC(c1cc(-c2ccc(Cl)cc2)nc2ccccc12)C1CCCCN1` (configuration not stated), the T/C by setting is: under setting [13], 105 % of control; under setting [14], 113 % of control.
Take `CC(C)(C(=O)O)c1csc(-c2ccc(Cl)cc2)n1`: the T/C is 98 % of control under setting [13], 102 % of control under setting [14] and 93 % of control under setting [15].
In the case of `O=[N+]([O-])c1cccc(OCCOc2ccccc2)c1`, the T/C (dose: 100.0 mg/kg/injection, schedule: Q01DX009 (ip), vehicle: other) was 110 % of control and the T/C (dose: 200.0 mg/kg/injection, schedule: Q01DX009 (ip), vehicle: other) is 105 % of control.
Consider `CC1(C)CC(=O)C2=C(C1)NC1=C(C(=O)CC(C)(C)C1)C2c1cccs1`, for which the T/C was 98 % of control under setting [13], 98 % of control under setting [14] and 93 % of control under setting [15].
As for `BrC/C(=N\N=C(\CBr)c1ccc(Br)cc1)c1ccc(Br)cc1`, the T/C under setting [16] was 100 % of control, the T/C under setting [17] is 100 % of control and the T/C under setting [18] was 91 % of control.
Regarding `CC1C(=O)OC2C1CCC1(C)C3(C)C(=O)C=CC213` (configuration not stated), the T/C (dose: 15.0 mg/kg/injection, schedule: Q01DX005 (ip), vehicle: Klucel (hydroxypropylcellulose) (HPC)) is 97 % of control; the T/C (dose: 30.0 mg/kg/injection, schedule: Q01DX005 (ip), vehicle: Klucel (hydroxypropylcellulose) (HPC)) is 101 % of control; the T/C (dose: 60.0 mg/kg/injection, schedule: Q01DX005 (ip), vehicle: Klucel (hydroxypropylcellulose) (HPC)) is 104 % of control and 93 % of control.
`N=C(N)SCCC(=O)NCNC(=O)CCSC(=N)N`: the T/C is, setting by setting: (dose: 50.0 mg/kg/injection, schedule: Q01DX005 (ip), vehicle: suspension in saline) 98 % of control; (dose: 100.0 mg/kg/injection, schedule: Q01DX005 (ip), vehicle: suspension in saline) 99 % of control.
`CCNC(=O)Nc1nc2ccccc2[nH]1`: the T/C under setting [6] was 103 % of control, the T/C under setting [7] is 100 % of control and the T/C under setting [8] was 107 % of control.
Consider `CC(C)NCC(O)COc1ccc(OCc2ccccc2)c(OCc2ccccc2)c1` (configuration not stated), for which the T/C under setting [8] was 100 % of control.
Consider `COc1cc2c(c(OC)c1OC)CCC/C2=N\NC(N)=S`, for which the T/C runs as follows: (dose: 100.0 mg/kg/injection, schedule: Q04DX003 (ip), vehicle: Klucel (hydroxypropylcellulose) (HPC)) 92 % of control; (dose: 200.0 mg/kg/injection, schedule: Q04DX003 (ip), vehicle: Klucel (hydroxypropylcellulose) (HPC)) 92 % of control; (dose: 400.0 mg/kg/injection, schedule: Q04DX003 (ip), vehicle: Klucel (hydroxypropylcellulose) (HPC)) 86 % of control.
As to `COC1C(/C=C/C(C)=O)OC2OC(C)(C)OC21` (configuration not stated), the T/C reads like this: (dose: 25.0 mg/kg/injection, schedule: Q01DX009 (ip), vehicle: saline) 106 % of control; (dose: 50.0 mg/kg/injection, schedule: Q01DX009 (ip), vehicle: saline) 107 % of control and 112 % of control.
Regarding `CCCCCCCCCCCCCCC(Cl)C/[N+]([O-])=[N+](/[O-])CC(Cl)CCCCCCCCCCCCCC` (configuration not stated), the T/C by setting is: under setting [1], 92 % of control; under setting [2], 92 % of control; (dose: 400.0 mg/kg/injection, schedule: Q04DX003 (ip), vehicle: saline) 92 % of control.
Turning to `CCCCCCCCSC1=CC(=O)C(OC)=C(OC)C1=O`, the T/C by setting is: (dose: 4.0 mg/kg/injection, schedule: Q01DX009 (ip), vehicle: Klucel (hydroxypropylcellulose) (HPC)) 92 % of control; (dose: 8.0 mg/kg/injection, schedule: Q01DX009 (ip), vehicle: Klucel (hydroxypropylcellulose) (HPC)) 95 % of control.
For `OCc1nc2ccccc2[nH]1`, the T/C is 96 % of control (dose: 25.0 mg/kg/injection, schedule: Q01DX009 (ip), vehicle: Klucel (hydroxypropylcellulose) (HPC)); 97 % of control under setting [16]; 96 % of control under setting [17]; 114 % of control under setting [18].
